Reference: publication PMC12691635 (Antimicrobial Agents and Chemotherapy, 2025)

What was measured:
[1] = cited from earlier work
Method: Our observations were best described by a one-compartment model, which is in accordance with the sparse data gathered from routine clinical practice ([40]). […] A potential explanation is that the studies that report higher CL were performed ...

[2] = Adverse events attributable to dalbavancin during follow-up; format: in vivo, human; conditions: single 1,500 mg i.v. dose, over administration and during follow-up, including changes in renal function; 20 patients
[3] = Population pharmacokinetic analysis (Monolix); format: in vivo, human
Method: The non-linear mixed-effect modeling software Monolix 2024R1 (Lixoft SAS, a Simulations Plus company) implementing the stochastic approximation expectation maximization algorithm was used for model development ([18]).
One- and multicompartment models with first-order elimination were tested. All individual parameters were assumed to be log-normally distributed. Inter-individual variability (IIV) was described using an exponential model. To describe residual variability, several error models (constant, proportional, or combined error model) were tested. The most appropriate structural model was selected based on the following criteria: Akaike information criterion, corrected Bayesian information criterion, usual goodness-of-fit plots, and relative standard errors. […] Model internal validation was based on goodness-of-fit plots, including observations versus individual (IPRED) and population predictions (PRED) and plots of normalized prediction distribution error (NPDE) versus PRED and time. A prediction-corrected visual predictive check (pc-VPC) was performed using 500 simulations with the final model ([21]), and non-parametric bootstrapping (n = 1,000) was used for assessing stability and robustness of the final model using Monolix 2024R1.

[4] = single 1,000 mg dose, 2 weeks post-administration, non-infected patients undergoing elective orthopedic surgery; cited from earlier work
From the text: Assessment of optimal antibiotic exposure at the site of the infection is challenging, especially for deep-seated infections, such as bone and joint, and often unbound plasma exposure is used as a worst-case scenario surrogate for target site exposure assuming that only the free (unbound) concentration can distribute to peripheral tissues ([37]). However, drug PK in the peripheral tissues depends not only on protein binding but also on other characteristics, such as drug’s molecular weight and physiochemistry, varying broadly across antibiotic classes ([38]). For dalbavancin, Dunne et al. perf ...

clinical = conditions: human, in vivo, iv, 1500 mg
Method: Blood samples obtained during the follow-up visits were processed immediately after extraction, centrifuged at 3,000 g for 10 min and frozen at −80°C until bioanalysis.

[5] = tested on: chronic prosthetic joint infections caused by Gram-positive bacteria; test: Microbiological and clinical cure after two-stage exchange with a single 1,500 mg dose; format: in vivo, human
[6] = non-parametric bootstrap n = 1,000
[7] = one-compartment model, total concentrations, 18 patients with CPJI, single 1,500 mg i.v.

## CN[C@H]1C(=O)N[C@@H]2Cc3ccc(cc3)Oc3cc4cc(c3O[C@@H]3O[C@H](C(=O)O)[C@@H](O)[C@H](O)[C@H]3NC(=O)CCCCCCCCC(C)C)Oc3ccc(cc3Cl)[C@@H](O)[C@@H]3NC(=O)[C@H](NC(=O)[C@@H]4NC(=O)[C@@H](NC2=O)c2cc(cc(O)c2Cl)Oc2cc1ccc2O)c1ccc(O)c(c1)-c1c(O[C@H]2O[C@H](CO)[C@@H](O)[C@H](O)[C@@H]2O)cc(O)cc1[C@@H](C(=O)NCCCN(C)C)NC3=O [dalbavancin]
[1]
  CL reported in healthy volunteers and patients with acute infections: 0.050 L/h
[2]
  Adverse events: No adverse events were reported
[3]; [6]
  CL, clearance, bootstrap median (95% CI): 0.037 (0.031–0.043) L/h
  V, volume of distribution, bootstrap median (95% CI): 18.0 (16.0–20.3) L
[3]; [7]
  CL, clearance, estimate (% RSE): 0.036 (8.2 %) [12.6%] L/h
  V, volume of distribution, estimate (% RSE): 17.9 (6.2 %) [18.1%] L
[4]
  Measured amount in homogenized cortical bone: 4.1 µg/g
clinical
  level at 336 h: 58.5 µg/mL
  level at 504 h: 29700 ng/mL
  level at 672 h: 13300 ng/mL
[5]; median follow-up of 693 days (IQI 630–824) after the second-stage procedure
  Clinical failures or relapses: no clinical failures or relapses
[5]; patient 2, hip, first-stage S. lugdunensis, after Daptomycin (4)-Cefazolin (7) days
  Second-stage surgery isolates: No growth
[5]; patient 3, hip, first-stage E. faecalis, after Daptomycin (4)-Ampicillin (7) days
  Second-stage surgery isolates: No growth
[5]; patient 4, hip, first-stage S. hominis, after Vancomycin (6)-Linezolid (9) days
  Second-stage surgery isolates: No growth
[5]; patient 5, hip, first-stage S. epidermidis, after Daptomycin (10) days
  Second-stage surgery isolates: No growth
[5]; patient 6, hip, first-stage S. epidermidis, after Vancomycin (13)-Daptomycin (3) days
  Second-stage surgery isolates: No growth
[5]; patient 7, shoulder, first-stage S. epidermidis, after Vancomycin (3)-Daptomycin (5) days
  Second-stage surgery isolates: No growth
[5]; patient 8, knee, first-stage C. acnes, after Vancomycin (8) days
  Second-stage surgery isolates: No growth
[5]; patient 9, hip, first-stage S. epidermidis, after Vancomycin (20) days
  Second-stage surgery isolates: No growth
[5]; patient 10, hip, first-stage S. epidermidis, C. acnes, after Vancomycin (3)-Daptomycin (9) days
  Second-stage surgery isolates: No growth
[5]; patient 11, knee, first-stage S. epidermidis, after Vancomycin (7) days
  Second-stage surgery isolates: No growth
[5]; patient 12, knee, first-stage C. acnes, after Vancomycin (3)-Linezolid (5) days
  Second-stage surgery isolates: No growth
[5]; patient 13, knee, first-stage S. epidermidis, after Vancomycin (10) days
  Second-stage surgery isolates: No growth
[5]; patient 14, knee, first-stage S. epidermidis, after Vancomycin (7)-Linezolid (5) days
  Second-stage surgery isolates: No growth
[5]; patient 15, hip, first-stage S. capitis, C. acnes, after Vancomycin (7)-Daptomycin (10) days
  Second-stage surgery isolates: No growth
[5]; patient 16, knee, first-stage S. capitis, S. pettenkoferi, after Vancomycin (5)-Daptomycin (7) days
  Second-stage surgery isolates: No growth
[5]; patient 17, shoulder, first-stage C. acnes, after Vancomycin (10) days
  Second-stage surgery isolates: S. epidermidis S. hominis
[5]; patient 18, hip, first-stage S. epidermidis, after Vancomycin (10)-Linezolid (13) days
  Second-stage surgery isolates: No growth
[5]; patient 19, hip, first-stage S. epidermidis, C. acnes, after Vancomycin (4)-Tedizolid (14) days
  Second-stage surgery isolates: No growth
[5]; patient 20, hip, first-stage S. epidermidis, after Daptomycin (12) days
  Second-stage surgery isolates: No growth
[5]; single 1,500 mg i.v. dose after median 11.5 days systemic antibiotics, vancomycin-gentamicin spacer, negative intraoperative cultures at second-stage surgery
  Microbiological cure rate: 94.7%
